Measured values from US20200199692A1, “LACTIC BACTERIA AND THE USE THEREOF FOR THE PREVENTIVE, INHIBITORY AND/OR REDUCTIVE TREATMENT OF THE FORMATION OF BACTERIAL BIOFILMS” (PROBIOTICAL S.P.A., priority 2016, published 2020).
≈ marks a conversion by molar mass, not a printed value. Where two headings read alike, the source gives them in different places.

How the values were obtained:
[1] = test system: Lactobacillus paracasei LMC-4 ID 1953 DSM 32254; test: Antibiotic resistance profile (E-test, ABBiodisk); assay type: cell-based
Lactobacillus paracasei = conditions: Tables 8 and 12 (L. paracasei); Linezolid from EFSA 2005, Quinupristin/Dalfopristin from EFSA 2008; cited from earlier work
[2] = test system: Commercial Bifidobacterium; test: Antibiotic resistance profile (E-test, ABBiodisk); assay type: cell-based
Commercial Lactobacillus = test: Antibiotic resistance profile (E-test, ABBiodisk); assay type: cell-based
[3] = test system: Lactobacillus plantarum LMC-1 ID 1952 DSM 32252; test: Antibiotic resistance profile (E-test, ABBiodisk); assay type: cell-based
Lactobacillus plantarum = conditions: Table 4 (L. plantarum); Linezolid from EFSA 2005, Quinupristin/Dalfopristin from EFSA 2008; cited from earlier work
[4] = test system: Lactobacillus paracasei LMC-8 ID 1954 DSM 32258; test: Antibiotic resistance profile (E-test, ABBiodisk); assay type: cell-based
[5] = Etest strips in agar, strain Lactobacillus paracasei LMC-4 ID 1953 DSM 32254
[6] = Etest strips in agar, Commercial Bifidobacterium reference strain
[7] = Etest strips in agar, Commercial Lactobacillus reference strain
[8] = Etest strips in agar, strain Lactobacillus plantarum LMC-1 ID 1952 DSM 32252
[9] = Etest strips in agar, strain Lactobacillus paracasei LMC-8 ID 1954 DSM 32258
[10] = Lacticaseibacillus paracasei, DSM32254, Etest strips in agar, strain Lactobacillus paracasei LMC-4 ID 1953 DSM 32254, read-out: MIC
[11] = Etest strips in agar, Commercial Bifidobacterium reference strain, read-out: MIC
[12] = Etest strips in agar, Commercial Lactobacillus reference strain, read-out: MIC
[13] = Lactiplantibacillus plantarum, DSM32252, Etest strips in agar, strain Lactobacillus plantarum LMC-1 ID 1952 DSM 32252, read-out: MIC
[14] = Lacticaseibacillus paracasei, DSM32258, Etest strips in agar, strain Lactobacillus paracasei LMC-8 ID 1954 DSM 32258, read-out: MIC
[15] = Lacticaseibacillus paracasei, DSM32254
[16] = Lacticaseibacillus paracasei, DSM32258

| Compound | EFSA Limit 2012 (Lactobacillus paracasei) [µg/mL] | EFSA Limit 2012 (Lactobacillus plantarum) [µg/mL] | MIC [1, 10] [µg/mL] | MIC [2, 11] [µg/mL] | MIC (Commercial Lactobacillus; [12]) [µg/mL] | MIC [3, 13] [µg/mL] | MIC [4, 14] [µg/mL] | other results |
| --- | --- | --- | --- | --- | --- | --- | --- | --- |
| Gentamicin | 32 | 16 |  |  |  |  |  | MIC [1, 5]: 2 µg/mL; MIC [2, 6]: 48 µg/mL; MIC (Commercial Lactobacillus; [7]): 6 µg/mL; MIC [3, 8]: 4 µg/mL; MIC [4, 9]: 4 µg/mL |
| Quinupristin/Dalfopristin | 4 | 4 |  |  |  |  |  | MIC [1, 5]: 0.094 µg/mL; MIC [2, 6]: 0.25 µg/mL; MIC (Commercial Lactobacillus; [7]): 1 µg/mL; MIC [3, 8]: 0.38 µg/mL; MIC [4, 9]: 0.25 µg/mL |
| O=C(O)c1cn(C2CC2)c2cc(N3CCNCC3)c(F)cc2c1=O [Ciprofloxacin] |  |  | 0.75 (≈ 2.26 µM) | 4 (≈ 12.1 µM) | 1 (≈ 3.02 µM) | > 32 | 1 (≈ 3.02 µM) |  |
| CN[C@H](CC(C)C)C(=O)N[C@H]1C(=O)N[C@@H](CC(N)=O)C(=O)N[C@H]2C(=O)N[C@H]3C(=O)N[C@H](C(=O)N[C@H](C(=O)O)c4cc(O)cc(O)c4-c4cc3ccc4O)[C@H](O)c3ccc(c(Cl)c3)Oc3cc2cc(c3O[C@@H]2O[C@H](CO)[C@@H](O)[C@H](O)[C@H]2O[C@H]2C[C@](C)(N)[C@H](O)[C@H](C)O2)Oc2ccc(cc2Cl)[C@H]1O [Vancomycin] |  |  |  |  |  |  |  | MIC [1, 15]: > 256 µg/mL; MIC ([2]; Bifidobacterium): 0.38 µg/mL (≈ 0.262 µM); MIC (Commercial Lactobacillus; Lactobacillus): > 256 µg/mL; MIC ([3]; Lactiplantibacillus plantarum, DSM32252): > 256 µg/mL; MIC [4, 16]: > 256 µg/mL |
| CO[C@H]1/C=C/O[C@@]2(C)Oc3c(C)c(O)c4c(O)c(c(/C=N/N5CCN(C)CC5)c(O)c4c3C2=O)NC(=O)/C(C)=C\C=C\[C@H](C)[C@H](O)[C@@H](C)[C@@H](O)[C@@H](C)[C@H](OC(C)=O)[C@@H]1C [Rifampicin] |  |  | 0.016 (≈ 0.0194 µM) | 0.094 (≈ 0.114 µM) | 0.094 (≈ 0.114 µM) | 0.25 (≈ 0.304 µM) | 0.032 (≈ 0.0389 µM) |  |
| CC[C@H]1OC(=O)[C@H](C)[C@@H](O[C@H]2C[C@@](C)(OC)[C@@H](O)[C@H](C)O2)[C@H](C)[C@@H](O[C@@H]2O[C@H](C)C[C@H](N(C)C)[C@H]2O)[C@](C)(OC)C[C@@H](C)C(=O)[C@H](C)[C@@H](O)[C@]1(C)O [Clarithromycin] |  |  | 0.047 (≈ 0.0628 µM) | 0.032 (≈ 0.0428 µM) | 0.047 (≈ 0.0628 µM) | 0.25 (≈ 0.334 µM) | 0.094 (≈ 0.126 µM) |  |
| CC1(C)S[C@@H]2[C@H](NC(=O)[C@H](N)c3ccc(O)cc3)C(=O)N2[C@H]1C(=O)O [Amoxicillin] |  |  | 0.25 (≈ 0.684 µM) | 0.064 (≈ 0.175 µM) | 0.5 (≈ 1.37 µM) | 0.19 (≈ 0.52 µM) | 0.5 (≈ 1.37 µM) |  |
| NC[C@H]1O[C@H](O[C@H]2[C@H](O)[C@@H](O[C@H]3O[C@H](CO)[C@@H](O)[C@H](N)[C@H]3O)[C@H](N)C[C@@H]2N)[C@H](O)[C@@H](O)[C@@H]1O [Kanamycin] |  |  | 24 (≈ 49.5 µM) |  | 128 (≈ 264 µM) | 64 (≈ 132 µM) | 64 (≈ 132 µM) |  |
| CCC[C@@H]1C[C@@H](C(=O)N[C@@H]([C@H]2O[C@H](SC)[C@H](O)[C@@H](O)[C@H]2O)[C@H](C)Cl)N(C)C1 [Clindamycin] |  |  | 0.064 (≈ 0.151 µM) | 0.047 (≈ 0.111 µM) | 0.5 (≈ 1.18 µM) | 2 (≈ 4.71 µM) | 0.094 (≈ 0.221 µM) |  |
| CC[C@H]1OC(=O)[C@H](C)[C@@H](O[C@H]2C[C@@](C)(OC)[C@@H](O)[C@H](C)O2)[C@H](C)[C@@H](O[C@@H]2O[C@H](C)C[C@H](N(C)C)[C@H]2O)[C@](C)(O)C[C@@H](C)C(=O)[C@H](C)[C@@H](O)[C@]1(C)O [Erythromycin] | 1 | 1 |  | 0.094 (≈ 0.128 µM) | 0.032 (≈ 0.0436 µM) | 0.75 (≈ 1.02 µM) |  | MIC [1, 15]: 0.125 µg/mL (≈ 0.17 µM); MIC [4, 16]: 0.125 µg/mL (≈ 0.17 µM) |
| CC[C@H]1OC(=O)[C@H](C)[C@@H](O[C@H]2C[C@@](C)(OC)[C@@H](O)[C@H](C)O2)[C@H](C)[C@@H](O[C@@H]2O[C@H](C)C[C@H](N(C)C)[C@H]2O)[C@](C)(O)C[C@@H](C)CN(C)[C@H](C)[C@@H](O)[C@]1(C)O [Azithromycin] |  |  | 0.5 (≈ 0.668 µM) | 0.75 (≈ 1 µM) | 0.38 (≈ 0.507 µM) | 2 (≈ 2.67 µM) | 0.75 (≈ 1 µM) |  |
| CN(C)[C@@H]1C(O)=C(C(N)=O)C(=O)[C@@]2(O)C(O)=C3C(=O)c4c(O)cccc4[C@@](C)(O)[C@H]3C[C@@H]12 [Tetracycline] |  |  | 0.19 (≈ 0.428 µM) | 8 (≈ 18 µM) | 0.5 (≈ 1.13 µM) | 12 (≈ 27 µM) | 0.38 (≈ 0.855 µM) |  |
| CC(=O)NC[C@H]1CN(c2ccc(N3CCOCC3)c(F)c2)C(=O)O1 [Linezolid] | 4 | 4 | 0.38 (≈ 1.13 µM) | 0.38 (≈ 1.13 µM) | 2 (≈ 5.93 µM) | 1.5 (≈ 4.45 µM) | 1.5 (≈ 4.45 µM) |  |
| CC1(C)S[C@@H]2[C@H](NC(=O)[C@H](N)c3ccccc3)C(=O)N2[C@H]1C(=O)O [Ampicillin] | 4 | 2 | 0.094 (≈ 0.269 µM) | 0.016 (≈ 0.0458 µM) | 0.5 (≈ 1.43 µM) | 0.032 (≈ 0.0916 µM) | 0.38 (≈ 1.09 µM) |  |
| O=C(N[C@H](CO)[C@H](O)c1ccc([N+](=O)[O-])cc1)C(Cl)Cl [Cloramphenicol] | 4 | 8 |  |  |  |  |  | MIC [1, 5]: 1.5 µg/mL (≈ 4.64 µM); MIC [2, 6]: 0.75 µg/mL (≈ 2.32 µM); MIC (Commercial Lactobacillus; [7]): 3 µg/mL (≈ 9.28 µM); MIC [3, 8]: 2 µg/mL (≈ 6.19 µM); MIC [4, 9]: 2.0 µg/mL (≈ 6.19 µM) |
| CO/N=C(\C(=O)N[C@@H]1C(=O)N2C(C(=O)O)=C(COC(N)=O)CS[C@H]12)c1ccco1 [Cefuroxime] |  |  | 0.75 (≈ 1.77 µM) | 0.25 (≈ 0.589 µM) | 1.5 (≈ 3.53 µM) | 0.064 (≈ 0.151 µM) | 1 (≈ 2.36 µM) |  |
| C[C@@H](O)[C@H]1C(=O)N2C(C(=O)O)=C(SCCN=CN)C[C@H]12 [Imipenem] |  |  | 1.5 (≈ 5.01 µM) | 0.25 (≈ 0.835 µM) | 2 (≈ 6.68 µM) | 0.047 (≈ 0.157 µM) | 0.75 (≈ 2.51 µM) |  |
| [H]/N=C(/N)N[C@H]1[C@H](O)[C@@H](O)[C@H](O[C@@H]2O[C@@H](C)[C@](O)(C=O)[C@H]2O[C@@H]2O[C@@H](CO)[C@H](O)[C@@H](O)[C@@H]2NC)[C@@H](N/C(N)=N\[H])[C@@H]1O [Streptomycin] | 64 |  | 12 (≈ 20.6 µM) | 64 (≈ 110 µM) | 12 (≈ 20.6 µM) | 16 (≈ 27.5 µM) | 24 (≈ 41.3 µM) |  |
| CO[C@@]1(NC(=O)Cc2cccs2)C(=O)N2C(C(=O)O)=C(COC(N)=O)CS[C@@H]21 [Cefoxitin] |  |  | > 256 | 1 (≈ 2.34 µM) | > 256 | 64 (≈ 150 µM) | > 256 |  |
